Source: PMC9814838, “The orphan nuclear receptor Nurr1 is responsive to non-steroidal anti-inflammatory drugs” (Communications Chemistry, 2020)
Several values for one entry are separate records, joined by “and”; a condition that tells them apart may be missing. Equal values may be shown once. Entries after “also recorded” stand apart in the source; their conditions may differ.

B1: biotinylated recombinant Nurr1 LBD (Tb-labeled through Tb-cryptate streptavidin) (domain or fragment, human, UniProt P43354-1 364-598, looked up)
chain: LISALVRAHVDSNPAMTSLDYSRFQANPDYQMSGDDTQHIQQFYDLLTGSMEIIRGWAEKIPGFADLPKADQDLLFESAFLELFVLRLAYRSNPVEGKLIFCNGVVLHRLQCVRGFGEWIDSIVEFSSNLQNMNIDISAFSCIAALAMVTERHGLKEPKRVEELQNKIVNCLKDHVTFNNGGLNRPNYLSKLLGKLPELRTLCTQGLQRIFYLKLEDLVPPPAIIDKLFLDTLPF
modifications: biotin on the lysine residue in the Avi-Tag
notes: In the assays coupled to terbium cryptate streptavidin conjugate (Tb-SA) as FRET donor; also called Tb-labeled Nurr1 LBD; Tb-cryptate-labeled Nurr1 LBD; source: E. coli T7 express with pGro7, purified (IMAC, TEV cleavage, amylose resin, birA biotinylation, monomeric avidin, SEC); not shown: MBP, N-terminal, cleaved; His8, N-terminal, cleaved; Avi-Tag, N-terminal, kept

Columns and labels:
Nurr1 = molecular target: T1, Nurr1 (Homo sapiens, UniProt P43354); experiment: Gal4-Nurr1 hybrid reporter gene assay in HEK293T cells; format: cell-based; details: for Nurr1 activity 10μM (mean fold activation) / Nurr1 activity 30μM (mean fold activation): primary screen, n ≥ 2, ^# not significant vs VP16 control; for Nurr1-dependent reporter activity in primary screen (fold activation): 10 or 30 µM; for Gal4-Nurr1 maximum/minimum activation: vs 0.1% DMSO
T1 construct: Nurr1 (uniprot entry: hNURR1–P43354, residues 360–598); expressed in transfected cells; host or cells: HEK293T
T1 sequence (P43354 360-598): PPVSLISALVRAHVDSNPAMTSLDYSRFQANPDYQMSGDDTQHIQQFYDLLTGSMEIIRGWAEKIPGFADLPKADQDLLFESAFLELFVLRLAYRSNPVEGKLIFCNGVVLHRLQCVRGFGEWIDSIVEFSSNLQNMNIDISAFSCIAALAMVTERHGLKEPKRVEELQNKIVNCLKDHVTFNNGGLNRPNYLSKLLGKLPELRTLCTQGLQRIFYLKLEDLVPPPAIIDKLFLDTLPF

Nur77 = molecular target: T2, Nur77 (Homo sapiens, UniProt P22736); experiment: Gal4-Nur77 hybrid reporter gene assay in HEK293T cells; format: cell-based; details: for Nur77 activity 10μM (mean fold activation) / Nur77 activity 30μM (mean fold activation): primary screen, n ≥ 2, ^# not significant vs VP16 control; for Nur77 min./max. activation: compared to 0.1% DMSO
T2 construct: Nur77 (uniprot entry: hNUR77–P22736, residues 358–598); expressed in transfected cells; host or cells: HEK293T
T2 sequence (P22736 358-598): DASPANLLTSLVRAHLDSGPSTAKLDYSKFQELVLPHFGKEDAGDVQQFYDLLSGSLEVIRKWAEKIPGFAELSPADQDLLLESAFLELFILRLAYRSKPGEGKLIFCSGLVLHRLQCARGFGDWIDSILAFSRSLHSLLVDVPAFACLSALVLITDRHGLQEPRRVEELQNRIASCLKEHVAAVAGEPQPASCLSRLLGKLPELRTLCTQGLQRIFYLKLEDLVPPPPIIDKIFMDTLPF

NOR1 = molecular target: T3, NOR1 (Homo sapiens, UniProt Q92570); experiment: Gal4-NOR1 hybrid reporter gene assay in HEK293T cells; format: cell-based; details: for Nor1 activity 10μM (mean fold activation) / Nor1 activity 30μM (mean fold activation): primary screen, n ≥ 2, ^# not significant vs VP16 control; for NOR1 min./max. activation: compared to 0.1% DMSO
T3 construct: NOR1 (isoform alpha; uniprot entry: hNOR1–Q92570-1, residues 393–626); expressed in transfected cells; host or cells: HEK293T
T3 sequence (Q92570 393-626): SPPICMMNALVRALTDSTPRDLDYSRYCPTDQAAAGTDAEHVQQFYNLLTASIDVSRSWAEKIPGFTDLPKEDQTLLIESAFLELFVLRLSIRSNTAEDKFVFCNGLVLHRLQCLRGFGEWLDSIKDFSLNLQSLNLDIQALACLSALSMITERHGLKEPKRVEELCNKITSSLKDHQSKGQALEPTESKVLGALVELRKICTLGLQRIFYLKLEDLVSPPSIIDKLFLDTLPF

NBRE: Nurr1 monomer = molecular target: T4, NBRE: Nurr1 monomer (Homo sapiens, UniProt P43354); experiment: Full-length Nurr1 reporter gene assay on NBRE response element; format: cell-based
T4 construct: the activity of full-length human Nurr1 in cellular settings; host or cells: HEK293T
T4 sequence (P43354 whole entry): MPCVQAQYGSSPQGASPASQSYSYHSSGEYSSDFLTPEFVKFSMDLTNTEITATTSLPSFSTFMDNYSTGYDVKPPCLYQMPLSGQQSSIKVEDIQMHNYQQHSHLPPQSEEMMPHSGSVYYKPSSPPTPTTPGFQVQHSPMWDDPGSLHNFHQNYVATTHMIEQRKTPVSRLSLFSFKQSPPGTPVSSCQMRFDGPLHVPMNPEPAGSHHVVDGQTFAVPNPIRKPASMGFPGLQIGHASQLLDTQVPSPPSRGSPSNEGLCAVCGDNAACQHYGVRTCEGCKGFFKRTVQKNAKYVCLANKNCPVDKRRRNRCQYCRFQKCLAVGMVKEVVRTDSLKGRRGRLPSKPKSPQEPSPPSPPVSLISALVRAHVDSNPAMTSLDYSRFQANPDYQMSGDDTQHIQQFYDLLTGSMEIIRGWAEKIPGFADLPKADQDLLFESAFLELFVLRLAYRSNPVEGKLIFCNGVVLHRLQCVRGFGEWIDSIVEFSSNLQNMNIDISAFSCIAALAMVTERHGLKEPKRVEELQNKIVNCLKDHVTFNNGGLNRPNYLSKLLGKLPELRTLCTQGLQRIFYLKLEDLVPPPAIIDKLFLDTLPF

NurRE: Nurr1 homodimer = molecular target: T5, NurRE: Nurr1 homodimer (Homo sapiens, UniProt P43354); experiment: Full-length Nurr1 reporter gene assay on NurRE response element; format: cell-based; details: mean ± SD; for IC50: full-length human Nurr1, HEK293T
T5 construct: the activity of full-length human Nurr1 in cellular settings; host or cells: HEK293T
T5 sequence (P43354 whole entry): as above

[1] = molecular target: T6, DR5: Nurr1–RXRα heterodimer (Homo sapiens, UniProt P43354); experiment: Full-length Nurr1 reporter gene assay on DR5 response element; format: cell-based; details: mean ± SD; for IC50: full-length human Nurr1 and RXRα overexpressed, HEK293T
T6 construct: the activity of full-length human Nurr1 in cellular settings; host or cells: HEK293T
T6 sequence (P43354 whole entry, one chain of several): as the sequence (P43354 whole entry) above

Nurr1 LBD homodimer = molecular target: T7, Nurr1 LBD homodimer (Homo sapiens, UniProt P43354); experiment: Nurr1 homodimerization HTRF (GFP-Nurr1 LBD vs Tb-labeled Nurr1 LBD); format: biochemical; details: cell-free; ligand 100 µM
T7 construct: Nurr1 (uniprot entry: P43354-1, residues 364–598); MBP-Asn10 linker (N, cleaved yes); His8-Tag (N, cleaved yes); His10-Tag (N, cleaved yes); made in house; host or cells: E. coli T7 express (with pGro7)
Protocol: Strength and modulation of the formation of the heterodimer composed of the LBDs of Nurr1 and RXRα was investigated by titration of GFP-RXRα LBD against a fixed concentration of Nurr1 LBD. Assay solutions were prepared in HTRF assay buffer supplemented with 0.1% (w/v) CHAPS as well as 1% DMSO with test compounds at 100 µM or DMSO alone as negative control. […] Free GFP was added to keep the total GFP content stable at 4 µM throughout the entire series in order to suppress artefacts from changes in degree of diffusion enhanced FRET. Samples were equilibrated at RT for 2 h before FI520 and FI620 were recorded after excitation at 340 nm, and the HTRF signal was calculated as described above.

Nurr1–NCoR-1 interaction = molecular target: T8, Nurr1–NCoR-1 interaction (Homo sapiens, UniProt P43354); experiment: Nurr1–NCoR-1 interaction HTRF (GFP-Nurr1 LBD titrated against Tb-labeled NCoR-1); format: biochemical; details: cell-free; ligand fixed at 100 µM
T8 construct: Nurr1 (uniprot entry: P43354-1, residues 364–598); His10-Tag (N, cleaved yes); made in house; host or cells: E. coli T7 express (with pGro7)
Protocol: Since ligand concentration was fixed in this setting, interference with the HTRF system is less prone to generate potential artifacts.
To maintain a constant GFP concentration, free GFP protein was added to the dilution series. The experiments were performed in HTRF assay buffer (150 mM KF, 25 mM HEPES pH 7.5 (KOH), 5% (w/v) Glycerol, supplemented with 0.1% (w/v) CHAPS and 5 mM DTT) with 1% DMSO in an assay volume of 20 µl. After 1 h incubation at RT, fluorescence intensities after excitation at 340 nm were recorded at 520 nm for GFP acceptor fluorescence and 620 nm for Tb-SA donor fluorescence and the HTRF signal was calculated as described above.

Gal4-VP16 = molecular target: T9, Gal4-VP16 (Human herpesvirus 1, UniProt P06492); format: cell-based; details: n ≥ 4
T9 construct: host or cells: HEK293T

PPAR; RXRα; RARα = experiment: Selectivity profiling in Gal4 hybrid reporter gene assays outside the NR4A family; format: cell-based, human; details: rel. activation vs reference agonists at 1 µM; n ≥ 4
firefly luciferase = firefly luciferase (Photinus pyralis, UniProt P08659); experiment: Firefly luciferase inhibition; details: compounds marked with * in Fig. 2a
Sequence of firefly luciferase (P08659 whole entry, the tested form may be a part): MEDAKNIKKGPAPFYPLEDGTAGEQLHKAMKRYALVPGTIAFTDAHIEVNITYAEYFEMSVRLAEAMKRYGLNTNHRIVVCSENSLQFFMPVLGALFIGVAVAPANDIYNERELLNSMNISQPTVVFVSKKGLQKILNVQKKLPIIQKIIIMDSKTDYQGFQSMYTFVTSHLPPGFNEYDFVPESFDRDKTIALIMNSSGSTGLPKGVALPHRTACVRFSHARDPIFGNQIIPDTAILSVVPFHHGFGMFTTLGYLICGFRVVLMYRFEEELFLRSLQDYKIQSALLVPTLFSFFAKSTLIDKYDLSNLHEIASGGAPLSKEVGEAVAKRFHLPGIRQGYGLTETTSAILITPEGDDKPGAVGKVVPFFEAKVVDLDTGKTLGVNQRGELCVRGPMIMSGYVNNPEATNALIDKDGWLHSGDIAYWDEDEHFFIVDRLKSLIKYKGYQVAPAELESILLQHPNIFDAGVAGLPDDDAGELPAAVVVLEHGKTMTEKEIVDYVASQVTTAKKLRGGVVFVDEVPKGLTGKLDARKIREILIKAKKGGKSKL

RXRα = molecular target: T10, RXRα (Homo sapiens, UniProt P19793); experiment: Gal4-RXRα hybrid reporter gene assay (selectivity); format: cell-based; details: selectivity profiling; also described previously
T10 construct: expressed in transfected cells; host or cells: HEK293T
T10 sequence (P19793 227-458 limits assumed): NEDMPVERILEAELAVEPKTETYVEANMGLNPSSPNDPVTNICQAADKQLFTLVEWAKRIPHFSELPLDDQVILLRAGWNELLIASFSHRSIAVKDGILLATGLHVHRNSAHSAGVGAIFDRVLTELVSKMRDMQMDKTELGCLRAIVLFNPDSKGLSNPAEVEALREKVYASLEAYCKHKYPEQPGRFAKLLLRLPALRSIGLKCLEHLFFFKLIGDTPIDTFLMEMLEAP

[2] = molecular target: B1; experiment: AlphaScreen or HTRF; Nurr1 homodimerization: GFP-Nurr1 LBD titrated from 500 nM against biotinylated Nurr1 LBD 0.375 nM on Tb-SA 0.75 nM; free GFP added to keep total GFP at 500 nM; HTRF assay buffer with 0.1% CHAPS; 1% DMSO alone or with AQ, CQ, parecoxib or oxaprozin at 100 µM; 2 h at RT; details: both partners purified
GFP-RXRα LBD = molecular target: T11, GFP-RXRα LBD (human, UniProt P19793-1 226-462); experiment: AlphaScreen or HTRF; Nurr1-RXR heterodimerization: GFP-RXRα LBD titrated from 4 µM (dilution factor 0.7) against biotinylated Nurr1 LBD 0.375 nM on Tb-SA 0.75 nM; free GFP added to keep total GFP at 4 µM; HTRF assay buffer with 0.1% CHAPS; 1% DMSO alone or with AQ, CQ, MFA, parecoxib or oxaprozin at 100 µM; 2 h at RT; details: both partners purified
T11 construct: Superfolder GFP is the FRET acceptor; a BamHI site lies between GFP and the LBD; also called GFP-labeled RXRα LBD; source: E. coli T7 express with pGro7, purified (IMAC, TEV cleavage, reverse IMAC, SEC); not shown: His10, N-terminal, cleaved; superfolder GFP, N-terminal, kept
T11 sequence (looked up): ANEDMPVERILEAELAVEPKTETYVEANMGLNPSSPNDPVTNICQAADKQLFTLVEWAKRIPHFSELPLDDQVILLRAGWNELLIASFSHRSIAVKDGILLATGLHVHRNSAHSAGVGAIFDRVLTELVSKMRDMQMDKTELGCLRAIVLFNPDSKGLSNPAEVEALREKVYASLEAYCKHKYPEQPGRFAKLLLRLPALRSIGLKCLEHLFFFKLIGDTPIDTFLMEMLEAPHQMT

Molecule	Nurr1 activity 10μM (mean fold activation) (Nurr1) [fold]	Nurr1 activity 30μM (mean fold activation) (Nurr1)	Gal4-Nurr1 maximum/minimum activation (Nurr1; mean ± SD) [fold]	Nur77 activity 10μM (mean fold activation) (Nur77) [fold]	Nur77 activity 30μM (mean fold activation) (Nur77)	Nor1 activity 10μM (mean fold activation) (NOR1) [fold]	Nor1 activity 30μM (mean fold activation) (NOR1)	NOR1 min./max. activation (NOR1; mean ± SD)	Control experiments on Gal4-VP16 (non-specific reporter effects) (Gal4-VP16)	Selectivity over PPAR, RXRα, RARα (PPAR; RXRα; RARα)	further results
Cc1ccc(Cl)c(Nc2ccccc2C(=O)O)c1Cl [MFA, Meclofenamic acid]	3.60	toxic	3.52 ± 0.05	3.01	toxic	3.92	toxic	5.5 ± 0.6	clearly Nurr1 mediated	confirmed selectivity	Nurr1-dependent reporter activity in primary screen (fold activation) (Nurr1): > 1.5 fold; EC50 (Nurr1; HEK293T, mean ± SD, n≥3): 4.7 µM; Gal4-Nurr1 maximum/minimum activation (Nurr1; mean ± SD, listed as meclofenamic acid): 3.52 ± 0.05 fold and 3.52 ± 0.07 fold; EC50 (Nur77; HEK293T, mean ± SD, n≥3): 3.9 ± 0.7 µM; Nur77 min./max. activation (Nur77; mean ± SD): 3.3 ± 0.4; EC50 (NOR1; HEK293T, mean ± SD, n≥3): 7.9 ± 0.8 µM; NBRE: Nurr1 monomer activity in words (NBRE: Nurr1 monomer; full-length human Nurr1, HEK293T): Inactive; IC50 (NurRE: Nurr1 homodimer): 5.2 µM; NurRE: Nurr1 homodimer maximum/minimum activation (NurRE: Nurr1 homodimer): 0.70 ± 0.01 fold; IC50 [1]: 10.7 µM; DR5: Nurr1–RXRα heterodimer maximum/minimum activation [1]: 0.79 ± 0.01 fold; Homodimerization (effect of ligand) (Nurr1 LBD homodimer): entirely prevented homodimerization; also recorded: Decreases dimerization; NCoR-1 affinity (effect of ligand) (Nurr1–NCoR-1 interaction): markedly reduced affinity; also recorded: Decreases affinity
O=C(O)COC(=O)Cc1ccccc1Nc1c(Cl)cccc1Cl [aceclofenac]	0.85	0.46 fold	1.99 ± 0.07	0.84	0.60 fold	0.94	0.49 fold			confirmed selectivity	EC50 (Nurr1; HEK293T, mean ± SD, n≥3): 2.5 ± 0.1 µM; Inhibition of firefly luciferase (firefly luciferase): inhibit firefly luciferase
Cc1ccc(Nc2c(F)cccc2Cl)c(CC(=O)O)c1 [lumiracoxib]	0.90	0.76 fold		0.76	0.66 fold	0.86	0.79 fold				Inhibition of firefly luciferase (firefly luciferase): inhibit firefly luciferase
O=C(O)CCc1nc(-c2ccccc2)c(-c2ccccc2)o1 [oxaprozin]								≥ 0.00	no non-specific reporter suppression		RXR agonism (RXRα): weak RXR agonism
CCC(=O)NS(=O)(=O)c1ccc(-c2c(-c3ccccc3)noc2C)cc1 [parecoxib]								0.22 ± 0.05	no non-specific reporter suppression		IC50 (Nur77; HEK293T, mean ± SD, n≥3): 23.7 ± 0.2 µM; Nur77 min./max. activation (Nur77; mean ± SD): 0.1 ± 0.0; IC50 (NOR1; HEK293T, mean ± SD, n≥3, read-out: NOR1 IC50): 25 ± 4 µM; IC50 (NBRE: Nurr1 monomer; full-length human Nurr1, HEK293T, mean ± SD): 15 µM; NBRE: Nurr1 monomer maximum/minimum activation (NBRE: Nurr1 monomer; mean ± SD): 0.41 ± 0.05 fold; IC50 (NurRE: Nurr1 homodimer): 21 µM; NurRE: Nurr1 homodimer maximum/minimum activation (NurRE: Nurr1 homodimer): 0.4 ± 0.1 fold; IC50 [1]: 20 µM; DR5: Nurr1–RXRα heterodimer maximum/minimum activation [1]: 0.5 ± 0.1 fold; Homodimerization (effect of ligand) (Nurr1 LBD homodimer): diminished Nurr1 dimer formation; NCoR-1 affinity (effect of ligand) (Nurr1–NCoR-1 interaction): Decreases affinity
Cc1onc(-c2ccccc2)c1-c1ccc(S(N)(=O)=O)cc1 [valdecoxib]	0.79	0.54 fold	0.52 ± 0.04	0.90	0.82 fold	1.05	0.76 fold		no non-specific reporter suppression	confirmed selectivity	Nurr1-dependent reporter activity in primary screen (fold activation) (Nurr1): < 0.80 fold; IC50 (Nurr1; HEK293T, mean ± SD, n≥3): 13 ± 3 µM
GFP-Nurr1 LBD (domain or fragment, human, UniProt P43354-1 364-598, looked up, Superfolder GFP is the FRET acceptor; a BamHI site lies between GFP and the LBD; also called GFP-labeled Nurr1 LBD; source: E. coli T7 express with pGro7, purified (IMAC, TEV cleavage, reverse IMAC, SEC); not shown: His10, N-terminal, cleaved; superfolder GFP, N-terminal, kept) LISALVRAHVDSNPAMTSLDYSRFQANPDYQMSGDDTQHIQQFYDLLTGSMEIIRGWAEKIPGFADLPKADQDLLFESAFLELFVLRLAYRSNPVEGKLIFCNGVVLHRLQCVRGFGEWIDSIVEFSSNLQNMNIDISAFSCIAALAMVTERHGLKEPKRVEELQNKIVNCLKDHVTFNNGGLNRPNYLSKLLGKLPELRTLCTQGLQRIFYLKLEDLVPPPAIIDKLFLDTLPF											binding result [2]: binds
B1											binding result (GFP-RXRα LBD): binds
